# Reference: patent US9283280B2, “Compositions for drug administration” (Aegis Therapeutics, LLC, priority 2008, dated 2016)
# Columns and labels:
# blood D-glucose [1] = experiment: Insulin eye drops with absorption enhancer in xylazine/ketamine-anesthetized hyperglycemic rats, blood D-glucose; assay type: in vivo, rat; details: for hypoglycemic effect / insulin absorption enhancement: eye drops 0.2% insulin + 0.5% enhancer; for absorption enhancing activity by alkyl chain length: ocular insulin, concentration not given
# [2] = Intranasal triptans with alkylsaccharide in rats, plasma levels by HPLC; assay type: in vivo;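 further: rats in groups of eight given 20 µL into one nostril, dose expressed as triptan free base, Cmax and Tmax read from plasma concentration–time curves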
# Description: Each set of drug solutions is administered to six groups of eight rats each by 20 uL instillation to a single nare of each animal. […] After the last blood sample is collected each animal is cuthanizcd with CO2. After blood collection, plasma is immediately prepared from each blood sample using lithium/heparin as the anticoagulant. Plasma samples are stored at −70° C. until analyzed. […] The observed Tmax values from each plot is determined by inspection of the concentration vs time plots and recorded as shown in Table XII. The doses designated in this table reflect amounts of triptan free base in each case.
# blood D-glucose [3] = experiment: Glucagon eye drops with surfactant in rats, elevation of blood D-glucose; details: for Blood Glucose Concentration: glucagon eye drops + 0.5% surfactant added after 120 min
# Description: Glucagon absorption from the eye was measured in rats given eye drops containing various surfactants plus glucagon (30 μg) (Eli Lilly, Indianapolis, Ind.) by monitoring an elevation in blood D-glucose levels. In these experiments, rats were anesthetized with sodium pentobarbital rather than xylazine/ketamin.
# Paired animals that receive eye drops containing the surfactant alone, or glucagon alone, were compared to animals receiving eye drops with the surfactant plus glucagon.
# [4] = 0.5% surfactant, time −10 min, before insulin eye drops
# [5] = 0.5% surfactant, time −20 min, before insulin eye drops
# [6] = insulin eye drops + 0.5% surfactant, time 0 min
# [7] = insulin eye drops + 0.5% surfactant, time 10 min
# [8] = insulin eye drops + 0.5% surfactant, time 20 min
# [9] = insulin eye drops + 0.5% surfactant, time 30 min
# [10] = insulin eye drops + 0.5% surfactant, time 40 min
# [11] = insulin eye drops + 0.5% surfactant, time 50 min
# [12] = insulin eye drops + 0.5% surfactant, time 60 min
# [13] = insulin eye drops + 0.5% surfactant, time 70 min
# [14] = insulin eye drops + 0.5% surfactant, time 80 min
# [15] = insulin eye drops + 0.5% surfactant, time 90 min
# [16] = insulin eye drops + 0.5% surfactant, time 100 min
# [17] = insulin eye drops + 0.5% surfactant, time 110 min
# [18] = insulin eye drops + 0.5% surfactant, time 120 min
# [19] = Naratriptan 0.22 mg/kg intranasal, alkylsaccharide 0.02%
# [20] = Naratriptan 0.22 mg/kg intranasal, alkylsaccharide 0.05%
# [21] = Naratriptan 0.22 mg/kg intranasal, alkylsaccharide 0.1%
# [22] = Naratriptan 0.22 mg/kg intranasal, alkylsaccharide 0.5%
# [23] = Naratriptan 0.22 mg/kg intranasal, alkylsaccharide 2%
# [24] = Rizatriptan […] intranasal, alkylsaccharide 0.02%
# [25] = Rizatriptan […] intranasal, alkylsaccharide 0.05%
# [26] = Rizatriptan […] intranasal, alkylsaccharide 0.1%
# [27] = Rizatriptan […] intranasal, alkylsaccharide 0.5%
# [28] = Rizatriptan […] intranasal, alkylsaccharide 2%
# [29] = Sumatriptan 6.2 mg/kg intranasal, alkylsaccharide 0.02%
# [30] = Sumatriptan 6.2 mg/kg intranasal, alkylsaccharide 0.05%
# [31] = Sumatriptan 6.2 mg/kg intranasal, alkylsaccharide 0.1%
# [32] = Sumatriptan 6.2 mg/kg intranasal, alkylsaccharide 0.5%
# [33] = Sumatriptan 6.2 mg/kg intranasal, alkylsaccharide 2%
# [34] = insulin eye drops + 0.5% alkylglucoside
compound,measurement,setting,value
"CCCCCCCOC1O[C@H](CO)[C@@H](O)[C@H](O)[C@H]1O (some centres unmarked) [heptylglucoside, heptylglucopyranoside]",hypoglycemic effect / insulin absorption enhancement,blood D-glucose [1],ineffective
"CCCCCCCCCCO[C@@H]1O[C@H](CO)[C@@H](O[C@H]2O[C@H](CO)[C@@H](O)[C@H](O)[C@H]2O)[C@H](O)[C@H]1O [decyl maltoside, decyl-β-D-maltoside]",Blood Glucose Concentration,blood D-glucose [1]; [4],287 mg/dL
same,Blood Glucose Concentration,blood D-glucose [1]; [5],249 mg/dL
same,hypoglycemic effect / insulin absorption enhancement,blood D-glucose [1],prompt and sustained fall in blood glucose levels
same,Blood Glucose Concentration,blood D-glucose [1]; [6],337 mg/dL
same,Blood Glucose Concentration,blood D-glucose [1]; [7],304 mg/dL
same,Blood Glucose Concentration,blood D-glucose [1]; [8],292 mg/dL
same,Blood Glucose Concentration,blood D-glucose [1]; [9],221 mg/dL
same,Blood Glucose Concentration,blood D-glucose [1]; [10],164 mg/dL
same,Blood Glucose Concentration,blood D-glucose [1]; [11],138 mg/dL
same,Blood Glucose Concentration,blood D-glucose [1]; [12],114 mg/dL
same,Blood Glucose Concentration,blood D-glucose [1]; [13],104 mg/dL
same,Blood Glucose Concentration,blood D-glucose [1]; [14],110 mg/dL
same,Blood Glucose Concentration,blood D-glucose [1]; [15],120 mg/dL
same,Blood Glucose Concentration,blood D-glucose [1]; [16],92 mg/dL
same,Blood Glucose Concentration,blood D-glucose [1]; [17],81 mg/dL
same,Blood Glucose Concentration,blood D-glucose [1]; [18],87 mg/dL
same,absorption enhancing activity by alkyl chain length,blood D-glucose [1],less absorption enhancing activity
same,Ratio Cmax(alkylsacch)/Cmax(No alkylsacch),[2]; [19],≦1.5
same,Tmax,[2]; [19],~1 to 2 h
same,Ratio Cmax(alkylsacch)/Cmax(No alkylsacch),[2]; [20],≦1.5
same,Tmax,[2]; [20],~1 to 2 h
same,Ratio Cmax(alkylsacch)/Cmax(No alkylsacch),[2]; [21],≧1.5
same,Tmax,[2]; [21],~1 to 2 h
same,Ratio Cmax(alkylsacch)/Cmax(No alkylsacch),[2]; [22],≧1.5
same,Tmax,[2]; [22],~0.083 to 0.25 h
same,Ratio Cmax(alkylsacch)/Cmax(No alkylsacch),[2]; [23],≧1.5
same,Tmax,[2]; [23],~0.083 to 0.25 h
same,Tmax,[2]; [24],~1 to 2 h
same,Tmax,[2]; [25],~1 to 2 h
same,Tmax,[2]; [26],~1 to 2 h
same,Tmax,[2]; [27],~0.083 to 0.25 h
same,Tmax,[2]; [28],~0.083 to 0.25 h
same,Ratio Cmax(alkylsacch)/Cmax(No alkylsacch),[2]; [29],≦1.5
same,Tmax,[2]; [29],~1 to 2 h
same,Ratio Cmax(alkylsacch)/Cmax(No alkylsacch),[2]; [30],≦1.5
same,Tmax,[2]; [30],~1 to 2 h
same,Ratio Cmax(alkylsacch)/Cmax(No alkylsacch),[2]; [31],≧1.5
same,Tmax,[2]; [31],~1 to 2 h
same,Ratio Cmax(alkylsacch)/Cmax(No alkylsacch),[2]; [32],≧1.5
same,Tmax,[2]; [32],~0.083 to 0.25 h
same,Ratio Cmax(alkylsacch)/Cmax(No alkylsacch),[2]; [33],≧1.5
same,Tmax,[2]; [33],~0.083 to 0.25 h
same,glucagon absorption / blood D-glucose values,blood D-glucose [3]; eye drops surfactant plus glucagon in rats previously treated with surfactant plus insulin eye drops,increase significantly
same,Blood Glucose Concentration,blood D-glucose [3]; time 130 min,95 mg/dL
same,Blood Glucose Concentration,blood D-glucose [3]; time 140 min,99 mg/dL
same,Blood Glucose Concentration,blood D-glucose [3]; time 150 min,132 mg/dL
same,Blood Glucose Concentration,blood D-glucose [3]; time 160 min,157 mg/dL
same,Blood Glucose Concentration,blood D-glucose [3]; time 170 min,171 mg/dL
same,Blood Glucose Concentration,blood D-glucose [3]; time 180 min,180 mg/dL
same,Blood Glucose Concentration,blood D-glucose [3]; time 190 min,189 mg/dL
decylsucrose,hypoglycemic effect / insulin absorption enhancement,blood D-glucose [1],effective in reducing blood glucose levels
same,blood glucose level,"blood D-glucose [1]; insulin eye drops + 0.5% alkyl saccharide, time 0 min",313 mg/dL
same,blood glucose level,"blood D-glucose [1]; insulin eye drops + 0.5% alkyl saccharide, time 120 min",164 mg/dL
"CCCCCCOC1O[C@H](CO)[C@@H](O)[C@H](O)[C@H]1O (some centres unmarked) [hexylglucoside, Hexylglucopyranoside]",hypoglycemic effect / insulin absorption enhancement,blood D-glucose [1],ineffective
"CCCCCCCCO[C@@H]1O[C@H](CO)[C@@H](O[C@H]2O[C@H](CO)[C@@H](O)[C@H](O)[C@H]2O)[C@H](O)[C@H]1O [octyl maltoside, Octyl-β-D-maltoside]",absorption enhancing activity by alkyl chain length,blood D-glucose [1],no
same,Ratio Cmax(alkylsacch)/Cmax(No alkylsacch),[2]; [19],≦1.5
same,Tmax,[2]; [19],~1 to 2 h
same,Ratio Cmax(alkylsacch)/Cmax(No alkylsacch),[2]; [20],≦1.5
same,Tmax,[2]; [20],~1 to 2 h
same,Ratio Cmax(alkylsacch)/Cmax(No alkylsacch),[2]; [21],≦1.5
same,Tmax,[2]; [21],~1 to 2 h
same,Ratio Cmax(alkylsacch)/Cmax(No alkylsacch),[2]; [22],≦1.5
same,Tmax,[2]; [22],~1 to 2 h
same,Ratio Cmax(alkylsacch)/Cmax(No alkylsacch),[2]; [23],≦1.5
same,Tmax,[2]; [23],~1 to 2 h
same,Tmax,[2]; [24],~1 to 2 h
same,Tmax,[2]; [25],~1 to 2 h
same,Tmax,[2]; [26],~1 to 2 h
same,Tmax,[2]; [27],~1 to 2 h
same,Tmax,[2]; [28],~1 to 2 h
same,Ratio Cmax(alkylsacch)/Cmax(No alkylsacch),[2]; [29],≦1.5
same,Tmax,[2]; [29],~1 to 2 h
same,Ratio Cmax(alkylsacch)/Cmax(No alkylsacch),[2]; [30],≦1.5
same,Tmax,[2]; [30],~1 to 2 h
same,Ratio Cmax(alkylsacch)/Cmax(No alkylsacch),[2]; [31],≦1.5
same,Tmax,[2]; [31],~1 to 2 h
same,Ratio Cmax(alkylsacch)/Cmax(No alkylsacch),[2]; [32],≦1.5
same,Tmax,[2]; [32],~1 to 2 h
same,Ratio Cmax(alkylsacch)/Cmax(No alkylsacch),[2]; [33],≦1.5
same,Tmax,[2]; [33],~1 to 2 h
"CCCCCCCCCOC1O[C@H](CO)[C@@H](O)[C@H](O)[C@H]1O (some centres unmarked) [nonylglucoside, nonylglucopyranoside]",hypoglycemic effect / insulin absorption enhancement,blood D-glucose [1],effectively stimulated insulin absorption
same,"blood glucose level, initial (from)",blood D-glucose [1]; [34],297 mg/dL
same,"blood glucose level, reduced (to)",blood D-glucose [1]; [34],150 mg/dL
dodecylsucrose [dodecyl sucrose],Blood Glucose Concentration,blood D-glucose [1]; [4],305 mg/dL
same,Blood Glucose Concentration,blood D-glucose [1]; [5],266 mg/dL
same,Blood Glucose Concentration,blood D-glucose [1]; [6],351 mg/dL
same,Blood Glucose Concentration,blood D-glucose [1]; [7],347 mg/dL
same,Blood Glucose Concentration,blood D-glucose [1]; [8],252 mg/dL
same,Blood Glucose Concentration,blood D-glucose [1]; [9],161 mg/dL
same,Blood Glucose Concentration,blood D-glucose [1]; [10],120 mg/dL
same,Blood Glucose Concentration,blood D-glucose [1]; [11],105 mg/dL
same,Blood Glucose Concentration,blood D-glucose [1]; [12],114 mg/dL
same,Blood Glucose Concentration,blood D-glucose [1]; [13],113 mg/dL
same,Blood Glucose Concentration,blood D-glucose [1]; [14],104 mg/dL
same,Blood Glucose Concentration,blood D-glucose [1]; [15],86 mg/dL
same,Blood Glucose Concentration,blood D-glucose [1]; [16],113 mg/dL
same,Blood Glucose Concentration,blood D-glucose [1]; [17],107 mg/dL
same,Blood Glucose Concentration,blood D-glucose [1]; [18],112 mg/dL
same,blood glucose level,"blood D-glucose [1]; insulin eye drops + […] alkyl saccharide, time 0 min",335 mg/dL
same,blood glucose level,"blood D-glucose [1]; insulin eye drops + […] alkyl saccharide, time 120 min",150 mg/dL
same,Tmax,[2]; [19],~1 h
same,Tmax,[2]; [20],~0.083 to 0.25 h
same,Tmax,[2]; [21],~0.083 to 0.25 h
same,Tmax,[2]; [22],~0.083 to 0.25 h
same,Tmax,[2]; [23],~0.083 to 0.25 h
same,Tmax,[2]; [24],~1 h
same,Tmax,[2]; [25],~0.083 to 0.25 h
same,Tmax,[2]; [26],~0.083 to 0.25 h
same,Tmax,[2]; [27],~0.083 to 0.25 h
same,Tmax,[2]; [28],~0.083 to 0.25 h
same,Tmax,[2]; [29],~1 h
same,Tmax,[2]; [30],~0.083 to 0.25 h
same,Tmax,[2]; [31],~0.083 to 0.25 h
same,Tmax,[2]; [32],~0.083 to 0.25 h
same,Tmax,[2]; [33],~0.083 to 0.25 h
